Measurements reported in US12421276B2 (priority 2016, dated 2025).
“And” between values parts separate entries of the source, which are not always exact repeats. Equal entries are not always repeated. Where two headings read alike, the source gives them in different places. Where a SMILES comes first, the peptide text is derived from it. [ ]: non-standard residue; d: D form. The star is where a group is joined. pY = N[CH](Cc1ccc(OP(=O)(O)O)cc1)C(=O)O; Hexanoyl = CCCCCC(=O)*; Ahx = NCCCCCC(=O)O

Experiments:
[1] = Plasma stability study, rat plasma; format: in vitro ADME; details: Rat plasma, 1 μM, 37° C.
Protocol: (§1) Human and rat plasma (K2 EDTA) were obtained from Bioreclamation.
(§2) Compounds were dissolved as 0.3 mM DMSO stocks. Compounds were transferred to the plasma at 1 μM on a 96-well deep well plate. After mixing, samples were transferred to several 96-well plates (25 μL/well), and incubated at 37° C. The extent of metabolism was calculated as the disappearance of the test compound, compared to the 0-min control reaction incubations. Propantheline was included as a positive control to verify assay performance.
(§3) At each of the time points, 150 μL of quench solution (50% acetonitrile, 50% methanol with 0.05% formic acid) with internal standard (bucetin for positive ESI mode and warfarin for negative ESI mode) was transferred to each well. Plates were sealed and centrifuged at 4° C. for 15 minutes at 4000 rpm. The supernatant was transferred to fresh plates for LC/MS/MS analysis.
(§4) Elution conditions are detailed in the table below.
(§5) Initial rates of the clearance of test compounds were calculated using linear regression of semi-log plot of % remaining of compounds versus time. The elimination rate constant (equals to −slope) of the linear regression was then used to determine t½ values.

[2] = format: in vivo, rat; details: rat, dosed as prodrug, 10 mg/kg equivalent of Base Structure
Protocol: • 1. Eight (8) male JVC SD rats (purchased from Charles River Lab) were monitored daily for body condition and health status during the 3-5 days acclimation period. The rats were randomly assigned into […] (n=4). • 2. […] The dosed rats were individually placed into a metabolic cage, and have access to food and water at all times. The urine from each rat was collected daily from the metabolic cages, and kept in dry ice. • 4. At predose (0 min), 5 min, 15 min, 30 min, 1 hr, 2 hr, 8 hr, and 24 hr post dosing, approximately 200 ul blood samples were collected from each rat and transferred to EDTA tubes. • 5. The blood samples in EDTA vials were centrifuged at 4° C. and 6,000 rpm for 10 minutes to generate ˜100 μl of plasma per sample. Blood samples were processed as quickly as possible and remain no longer than 2 min at room temperature and no longer than 15 minutes at 4° C. prior to processing. • 6. All samples were transferred for bioanalytic assay using LCMS

[3] = Metabolic stability in simulated intestinal fluid (SIF), pH 6.8, with or without pancreatin; format: in vitro ADME; details: 5 μM, 37° C.; for half-life: simulated gi fluid
Protocol: (§6) Metabolic Stability in SIF and SGF (Simulated Intestinal and Gastric Fluid)
Buffer 3=SIF without enzyme
Buffer 4=SIF with 1% pancreatin
(§7) SIF was prepared freshly with 8.7 mM NaOH, 28.65 mM NaH2PO4, 105.85 mM NaCl, with a final pH of 6.8. SGF was prepared freshly with 34.2 mM NaCl, with a final pH of 1.2. Enzymes such as pepsin or pancreatin were added to some buffers. Human and rat plasma (K2 EDTA) were purchased from BioreclamationIVT.
(§8) Compounds were dissolved as 1.5 mM DMSO stocks. Compounds were transferred to SIF, SGF, or plasma at 5 μM on a 96-well deep well plate. After mixing, samples were transferred to several 96-well plates (25 μL/well), and incubated at 37° C. The extent of metabolism was calculated as the disappearance of the test compound, compared to the 0-min control reaction incubations. Candesartan Cilexetil and omeprazole were included as positive controls for SIF and SGF, respectively, to verify assay performance.
(§9) At each of the time points, 150 μL of quench solution (100% acetonitrile with 0.1% formic acid) with internal standard (bucetin for positive ESI mode and warfarin for negative ESI mode) was transferred to each well. Plates were sealed and centrifuged at 4° C. for 15 minutes at 4000 rpm. The supernatant was transferred to fresh plates for LC/MS/MS analysis.
as §4, §5

[4] = Plasma stability study, human plasma; format: in vitro ADME; details: Human plasma, 1 μM, 37° C.
Protocol: as §1, §2, §3, §4, §5

[5] = Metabolic stability in simulated gastric fluid (SGF), pH 1.2, with or without pepsin; format: in vitro ADME; details: 5 μM, 37° C.; for half-life: simulated gi fluid
Protocol: as §6
Buffer 1=SGF without enzyme
Buffer 2=SGF with 0.32% pepsin
as §7, §8, §9, §4, §5

[6] = analyte Parent (Base Structure), Average
[7] = analyte Parent (Base Structure), Combined (average ± std. dev.)
[8] = analyte Parent (Base Structure), individual animals, 10 mg/kg
[9] = analyte Prodrug, Combined (average ± std. dev.)
[10] = analyte Prodrug, individual animals

For `CCCCCC(=O)N1C(Cc2ccc(OP(=O)([O-])[O-])cc2)C(=O)N(C(C(=O)NCCCCCC(N)=O)C(C)CC)C12CCN(C)CC2.[Na+].[Na+]` (stereo not drawn) [Compound 2], the half-life [1] was 18.1 h, the “Plasma Stability (% Parent Remaining) 0 min” value [1] was 100% and the “Plasma Stability (% Parent Remaining) 60 min” value [1] was 82%. For the same molecule, the “Plasma Stability (% Parent Remaining) 120 min” value [1] was 77%, the “Plasma Stability (% Parent Remaining) 240 min” value [1] was 83% and the Cl/F_obs [2, 6] was 0.2421 (mg/kg)/(ng/ml)/h. For the same molecule, the Vz/F_obs [2, 6] was 6.571 (mg/kg)/(ng/ml), the Cl/F_obs [2, 7] was 0.2 ± 0.1 (mg/kg)/(ng/ml)/h and the Vz/F_obs [2, 7] was 6.6 ± 6.9 (mg/kg)/(ng/ml). For the same molecule, the Cl/F_obs [2, 8] was 0.1263 (mg/kg)/(ng/ml)/h and 0.2902 (mg/kg)/(ng/ml)/h and 0.3099 (mg/kg)/(ng/ml)/h, the Vz/F_obs [2, 8] was 0.6603 (mg/kg)/(ng/ml) and 4.961 (mg/kg)/(ng/ml) and 14.09 (mg/kg)/(ng/ml) and the “AUMC 0-inf_obs” value ([2]; analyte Prodrug, Average) was 0 ng/ml * h^2. For the same molecule, the Cl/F_obs ([2]; analyte Prodrug, Average) was 0 (mg/kg)/(ng/ml)/h, the Lambda_z ([2]; analyte Prodrug, Average) was 0 h⁻¹ and the Tlag ([2]; analyte Prodrug, Average) was 0 h. For the same molecule, the Tmax ([2]; analyte Prodrug, Average) was 0 h, the Vz/F_obs ([2]; analyte Prodrug, Average) was 0 (mg/kg)/(ng/ml) and the “AUMC 0-inf_obs” value [2, 9] was 0 ng/ml * h^2. For the same molecule, the Cl/F_obs [2, 9] was 0 (mg/kg)/(ng/ml)/h, the Lambda_z [2, 9] was 0 h⁻¹ and the Tlag [2, 9] was 0 h. For the same molecule, the Tmax [2, 9] was 0 h, the Vz/F_obs [2, 9] was 0 (mg/kg)/(ng/ml) and the “AUMC 0-inf_obs” value [2, 10] was 0 ng/ml * h^2. The Cl/F_obs [2, 10] was 0 (mg/kg)/(ng/ml)/h, the Lambda_z [2, 10] was 0 h⁻¹ and the Tlag [2, 10] was 0 h. For the same molecule, the Tmax [2, 10] was 0 h, the Vz/F_obs [2, 10] was 0 (mg/kg)/(ng/ml) and the “SIF Stability (pH 6.8) 0 min” value ([3]; +Pancreatin (1%)) was 100%. For the same molecule, the “SIF Stability (pH 6.8) 60 min” value ([3]; +Pancreatin (1%)) was 94%, the “SIF Stability (pH 6.8) 120 min” value ([3]; +Pancreatin (1%)) was 51% and the “SIF Stability (pH 6.8) 240 min” value ([3]; +Pancreatin (1%)) was 34%. The half-life ([3]; pH 6.8, +Pancreatin (1%)) was 2.37 h, the half-life ([3]; pH 6.8, −Pancreatin) was 13.4 h and the “SIF Stability (pH 6.8) 0 min” value ([3]; −Pancreatin) was 100%. For the same molecule, the “SIF Stability (pH 6.8) 60 min” value ([3]; −Pancreatin) was 82%, the “SIF Stability (pH 6.8) 120 min” value ([3]; −Pancreatin) was 82% and the “SIF Stability (pH 6.8) 240 min” value ([3]; −Pancreatin) was 78%. The half-life [4] was 7.08 h, the “Plasma Stability (% Parent Remaining) 0 min” value [4] was 100% and the “Plasma Stability (% Parent Remaining) 60 min” value [4] was 113%. The “Plasma Stability (% Parent Remaining) 120 min” value [4] was 90%, the “Plasma Stability (% Parent Remaining) 240 min” value [4] was 72% and the “SGF Stability (pH 1.2) 0 min” value ([5]; +Pepsin (0.32%)) was 100%. For the same molecule, the “SGF Stability (pH 1.2) 60 min” value ([5]; +Pepsin (0.32%)) was 94%, the “SGF Stability (pH 1.2) 120 min” value ([5]; +Pepsin (0.32%)) was 89% and the “SGF Stability (pH 1.2) 240 min” value ([5]; +Pepsin (0.32%)) was 73%. For the same molecule, the half-life ([5]; pH 1.2, +Pepsin (0.32%)) was 8.62 h, the half-life ([5]; pH 1.2, −Pepsin) was 7.17 h and the “SGF Stability (pH 1.2) 0 min” value ([5]; −Pepsin) was 100%. For the same molecule, the “SGF Stability (pH 1.2) 60 min” value ([5]; −Pepsin) was 84%, the “SGF Stability (pH 1.2) 120 min” value ([5]; −Pepsin) was 78% and the “SGF Stability (pH 1.2) 240 min” value ([5]; −Pepsin) was 67%.
For `CCCCCC(=O)NC(Cc1ccc(OP(=O)([O-])O)cc1)C(=O)NC(C(=O)NCCCCCC(N)=O)C(C)CC.[Na+]` (stereo not drawn) [Compound A30] (Hexanoyl-[pY]-Ile-[Ahx]-NH2; configuration not given here), the “Plasma Stability Half-Life” value [1] was 21.79 h, the “Plasma Stability (% Parent Remaining) 0 min” value [1] was 100% and the “Plasma Stability (% Parent Remaining) 60 min” value [1] was 88%. For the same molecule, the “Plasma Stability (% Parent Remaining) 120 min” value [1] was 87%, the “Plasma Stability (% Parent Remaining) 240 min” value [1] was 86% and the “SIF Stability (pH 6.8) Half-Life (min)” value ([3]; +Pancreatin (1%)) was 156.6 min. For the same molecule, the “SIF Stability (pH 6.8) 0 min” value ([3]; +Pancreatin (1%)) was 100%, the “SIF Stability (pH 6.8) 60 min” value ([3]; +Pancreatin (1%)) was 70% and the “SIF Stability (pH 6.8) 120 min” value ([3]; +Pancreatin (1%)) was 51%. The “SIF Stability (pH 6.8) 240 min” value ([3]; +Pancreatin (1%)) was 34%, the “SIF Stability (pH 6.8) Half-Life (min)” value ([3]; −Pancreatin) was 68.4 min and the “SIF Stability (pH 6.8) 0 min” value ([3]; −Pancreatin) was 100%. The “SIF Stability (pH 6.8) 60 min” value ([3]; −Pancreatin) was 43%, the “SIF Stability (pH 6.8) 120 min” value ([3]; −Pancreatin) was 22% and the “SIF Stability (pH 6.8) 240 min” value ([3]; −Pancreatin) was 8%. For the same molecule, the “Plasma Stability Half-Life” value [4] was 1.4 h, the “Plasma Stability (% Parent Remaining) 0 min” value [4] was 100% and the “Plasma Stability (% Parent Remaining) 60 min” value [4] was 36%. The “Plasma Stability (% Parent Remaining) 120 min” value [4] was 20%, the “Plasma Stability (% Parent Remaining) 240 min” value [4] was 12% and the “SGF Stability (pH 1.2) Half-Life (min)” value ([5]; +Pepsin (0.32%)) was 248.3 min. For the same molecule, the “SGF Stability (pH 1.2) 0 min” value ([5]; +Pepsin (0.32%)) was 100%, the “SGF Stability (pH 1.2) 60 min” value ([5]; +Pepsin (0.32%)) was 95% and the “SGF Stability (pH 1.2) 120 min” value ([5]; +Pepsin (0.32%)) was 64%. For the same molecule, the “SGF Stability (pH 1.2) 240 min” value ([5]; +Pepsin (0.32%)) was 54%, the “SGF Stability (pH 1.2) Half-Life (min)” value ([5]; −Pepsin) was 1713.6 min and the “SGF Stability (pH 1.2) 0 min” value ([5]; −Pepsin) was 100%. The “SGF Stability (pH 1.2) 60 min” value ([5]; −Pepsin) was 95%, the “SGF Stability (pH 1.2) 120 min” value ([5]; −Pepsin) was 98% and the “SGF Stability (pH 1.2) 240 min” value ([5]; −Pepsin) was 89%.
